What all share (assay type): biochemical
Test [1] concerns the target T1, TYK2 (aa 871-1187, catalytic domain, GST-tag) (Homo sapiens, UniProt P29597).
T1 construct: JAK1 (aa 850-1154) and TYK2 (aa 871-1187) are expressed with an N-terminally fused GST-tag; GST (N); purchased Carna Biosciences, Inc; host or cells: baculovirus expression system
T1 sequence (P29597 871-1187): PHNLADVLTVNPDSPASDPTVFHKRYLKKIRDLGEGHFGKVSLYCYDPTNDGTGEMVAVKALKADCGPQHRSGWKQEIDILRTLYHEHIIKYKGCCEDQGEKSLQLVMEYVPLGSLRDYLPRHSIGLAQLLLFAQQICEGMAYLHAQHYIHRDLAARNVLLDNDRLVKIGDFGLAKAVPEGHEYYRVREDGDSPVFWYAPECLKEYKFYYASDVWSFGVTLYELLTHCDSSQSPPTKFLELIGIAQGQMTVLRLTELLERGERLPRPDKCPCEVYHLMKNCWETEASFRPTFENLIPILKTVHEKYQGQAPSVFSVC
The test is described as follows: JAK kinase assay (HTRF, phosphorylation of TK substrate-biotin), TYK2. Conditions: ATP at Km (13 μM); read-out: TYK2 kinase inhibitory activity (EC50 indicator). In short, it runs like this: (§1)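 Catalytic-domain kinases phosphorylated 1 μM biotin-TK substrate at ATP Km (JAK1 7 μM, JAK2 4 μM, JAK3 2 μM, TYK2 13 μM) in Hepes pH 7.0 with DTT and MgCl2, for 20-30 min at RT; JAK1 and TYK2 also had 50 nM SEB. Detection was by HTRF (streptavidin-XL665/Cryptate antibody) overnight, giving EC50.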

Test [2] has as its target T2, JAK3 (catalytic domain, His-tag) (Homo sapiens, UniProt P52333).
T2 construct: All four purified enzymes contain only the catalytic domain; His (N); purchased Carna Biosciences, Inc; host or cells: baculovirus expression system
The test is described as follows: JAK kinase assay (HTRF, phosphorylation of TK substrate-biotin), JAK3. As to conditions: ATP at Km (2 μM); read-out: JAK3 kinase inhibitory activity (EC50 indicator). In outline:
as §1

Test [3] concerns the target T3, JAK2 (catalytic domain, His-tag) (Homo sapiens, UniProt O60674).
T3 construct: All four purified enzymes contain only the catalytic domain; His (N); purchased Carna Biosciences, Inc; host or cells: baculovirus expression system
The test is described as follows: JAK kinase assay (HTRF, phosphorylation of TK substrate-biotin), JAK2. As to conditions: ATP at Km (4 μM); read-out: JAK2 kinase inhibitory activity (EC50 indicator). In outline: as §1
For orientation: In TR-FRET formats the signal depends on donor and acceptor labels being close together.

Test [4] concerns the target T4, JAK1 (aa 850-1154, catalytic domain, GST-tag) (Homo sapiens, UniProt P23458).
T4 construct: JAK1 (aa 850-1154) and TYK2 (aa 871-1187) are expressed with an N-terminally fused GST-tag; GST (N); purchased Carna Biosciences, Inc; host or cells: baculovirus expression system
The test is described as follows: JAK kinase assay (HTRF, phosphorylation of TK substrate-biotin), JAK1. Conditions: ATP at Km (7 μM); read-out: JAK1 kinase inhibitory activity (EC50 indicator). In outline:
as §1

T2 sequence (P52333 822-1111 limits assumed): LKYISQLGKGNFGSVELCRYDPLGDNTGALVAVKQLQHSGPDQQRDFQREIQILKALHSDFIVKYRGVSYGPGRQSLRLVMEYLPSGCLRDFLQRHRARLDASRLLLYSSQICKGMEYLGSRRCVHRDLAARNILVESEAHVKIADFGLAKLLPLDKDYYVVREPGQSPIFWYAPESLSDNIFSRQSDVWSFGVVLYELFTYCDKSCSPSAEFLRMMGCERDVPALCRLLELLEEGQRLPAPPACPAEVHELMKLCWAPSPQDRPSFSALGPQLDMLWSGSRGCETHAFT
T4 sequence (P23458 850-1154): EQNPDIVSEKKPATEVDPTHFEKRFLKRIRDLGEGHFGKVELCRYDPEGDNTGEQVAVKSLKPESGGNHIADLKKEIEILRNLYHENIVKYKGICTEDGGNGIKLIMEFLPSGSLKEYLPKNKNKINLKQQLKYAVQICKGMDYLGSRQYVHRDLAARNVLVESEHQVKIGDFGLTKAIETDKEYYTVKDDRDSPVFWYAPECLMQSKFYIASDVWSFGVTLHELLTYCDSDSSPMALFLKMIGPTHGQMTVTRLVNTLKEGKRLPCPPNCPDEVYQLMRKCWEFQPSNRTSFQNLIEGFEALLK
T3 sequence (O60674 849-1124 limits assumed): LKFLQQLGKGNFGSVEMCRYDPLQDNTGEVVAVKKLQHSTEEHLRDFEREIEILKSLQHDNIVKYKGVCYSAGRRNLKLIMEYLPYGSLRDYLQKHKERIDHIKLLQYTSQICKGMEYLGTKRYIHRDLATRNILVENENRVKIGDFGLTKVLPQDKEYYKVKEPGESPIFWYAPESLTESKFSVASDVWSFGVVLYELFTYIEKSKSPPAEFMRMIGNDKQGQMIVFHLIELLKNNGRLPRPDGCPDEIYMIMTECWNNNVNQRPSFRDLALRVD

For the compound `N#Cc1ccc(CC(=O)N2CCN(c3nc(NC(=O)c4ccccc4)nc4[nH]ccc34)CC23CC3)cc1` [Example 98, N-(4-{4-[2-(4-Cyano-phenyl)-acetyl]-4,7-diaza-spiro[2.5]oct-7-yl}-7H-pyrrolo[2,3-d]pyrimidin-2-yl)-benzamide], the half-maximal effective concentration (EC50) in test [1], in test [2], in test [3] and in test [4] was more than 500 nM in each case.

For the compound `N#Cc1ccc(CC(=O)N2CCN(c3nc(NC(=O)c4ccno4)nc4[nH]ccc34)CC23CC3)cc1` [Example 99, Isoxazole-5-carboxylic acid (4-{4-[2-(4-cyano-phenyl)-acetyl]-4,7-diaza-spiro[2.5]oct-7-yl}-7H-pyrrolo[2,3-d]pyrimidin-2-yl)-amide], the EC50 (in general, the midpoint of the concentration-response curve) in test [1] was more than 500 nM; in test [2], more than 500 nM; in test [3] it was less than 100 nM; in test [4], 100 to 500 nM.

Consider `CC(=O)OCC(=O)Nc1nc(N2CCN(C(=O)Cc3ccc(C#N)cc3)C3(CC3)C2)c2cc[nH]c2n1` [Example 100, Acetic acid (4-{4-[2-(4-cyano-phenyl)-acetyl]-4,7-diaza-spiro[2.5]oct-7-yl}-7H-pyrrolo[2,3-d]pyrimidin-2-ylcarbamoyl)-methyl ester], for which the EC50 was 100 to 500 nM in test [1], less than 100 nM in test [2], less than 100 nM in test [3] and less than 100 nM in test [4].

For `CS(=O)(=O)c1cccc(CC(=O)N2CCN(c3ncnc4[nH]ccc34)CC23CC3)c1` [Example 101, 2-(3-Methanesulfonyl-phenyl)-1-[7-(7H-pyrrolo[2,3-d]pyrimidin-4-yl)-4,7-diaza-spiro[2.5]oct-4-yl]-ethanone], the EC50 in test [1] was more than 500 nM; in test [2], 100 to 500 nM; in test [3] it was 100 to 500 nM; in test [4], 100 to 500 nM.

For the compound `NS(=O)(=O)c1cc(OCC(=O)N2CCN(c3ncnc4[nH]ccc34)CC23CC3)ccc1Cl` [Example 102, 2-Chloro-5-{2-oxo-2-[7-(7H-pyrrolo[2,3-d]pyrimidin-4-yl)-4,7-diaza-spiro[2.5]oct-4-yl]-ethoxy}-benzenesulfonamide], the EC50 in test [1] was 100 to 500 nM; in test [2] it was less than 100 nM; in test [3], less than 100 nM; in test [4], less than 100 nM.

For the compound `NS(=O)(=O)c1ccc(C(=O)N2CCN(c3ncnc4[nH]ccc34)CC23CC3)cc1Cl` [Example 103, 2-Chloro-4-[7-(7H-pyrrolo[2,3-d]pyrimidin-4-yl)-4,7-diaza-spiro[2.5]octane-4-carbonyl]-benzenesulfonamide], the EC50 in test [1], in test [2], in test [3] and in test [4] was less than 100 nM each time.

Regarding `CNS(=O)(=O)c1ccc(C(=O)N2CCN(c3ncnc4[nH]ccc34)CC23CC3)cc1` [Example 104, N-Methyl-4-[7-(7H-pyrrolo[2,3-d]pyrimidin-4-yl)-4,7-diaza-spiro[2.5]octane-4-carbonyl]-benzenesulfonamide], the 50% effective concentration (EC50) in test [1], in test [2], in test [3] and in test [4] was less than 100 nM each time.

For `O=C(C1CCc2ccccc21)N1CCN(c2ncnc3[nH]ccc23)CC12CC2` (centres unmarked) [Example 105, Indan-1-yl-[7-(7H-pyrrolo[2,3-d]pyrimidin-4-yl)-4,7-diaza-spiro[2.5]oct-4-yl]-methanone], the EC50 in test [1] is more than 500 nM; in test [2], 100 to 500 nM; in test [3], less than 100 nM; in test [4], 100 to 500 nM.

Take `O=C(c1ccc2sccc2c1)N1CCN(c2ncnc3[nH]ccc23)CC12CC2` [Example 106, Benzo[b]thiophen-5-yl-[7-(7H-pyrrolo[2,3-d]pyrimidin-4-yl)-4,7-diaza-spiro[2.5]oct-4-yl]-methanone]: the EC50 in test [1] is 100 to 500 nM; in test [2] it was 100 to 500 nM; in test [3], less than 100 nM; in test [4] it was less than 100 nM.

On to `CS(=O)(=O)c1ccc(CC(=O)N2CCN(c3ncnc4[nH]ccc34)CC23CC3)cc1` [Example 107, 2-(4-Methanesulfonyl-phenyl)-1-[7-(7H-pyrrolo[2,3-d]pyrimidin-4-yl)-4,7-diaza-spiro[2.5]oct-4-yl]-ethanone], for which the concentration giving a half-maximal response (EC50) in test [1] was more than 500 nM; in test [2], less than 100 nM; in test [3] it was less than 100 nM; in test [4], less than 100 nM.

As for `COc1cc(C(=O)N2[C@@H]3CC[C@H]2CN(c2ncnc4[nH]ccc24)C3)cs1` [Example 108, (5-Methoxy-thiophen-3-yl)-[3-(7H-pyrrolo[2,3-d]pyrimidin-4-yl)-3,8-diaza-bicyclo[3.2.1]oct-8-yl]-methanone], the EC50 in test [1] was more than 500 nM; in test [2] it was less than 100 nM; in test [3], less than 100 nM; in test [4], less than 100 nM.

Consider `O=C(Cc1cccs1)N1[C@@H]2CC[C@H]1CN(c1ncnc3[nH]ccc13)C2` [Example 109, 1-[3-(7H-Pyrrolo[2,3-d]pyrimidin-4-yl)-3,8-diaza-bicyclo[3.2.1]oct-8-yl]-2-thiophen-2-yl-ethanone], for which the EC50 in test [1] was more than 500 nM; in test [2], 100 to 500 nM; in test [3] it was less than 100 nM; in test [4], less than 100 nM.

As for `Cc1cc2[nH]c(C(=O)N3[C@@H]4CC[C@H]3CN(c3ncnc5[nH]ccc35)C4)cc2cc1F` [Example 110, (5-Fluoro-6-methyl-1H-indol-2-yl)-[3-(7H-pyrrolo[2,3-d]pyrimidin-4-yl)-3,8-diaza-bicyclo[3.2.1]oct-8-yl]-methanone], the EC50 in test [1] is more than 500 nM; in test [2], 100 to 500 nM; in test [3], 100 to 500 nM; in test [4] it was less than 100 nM.

Regarding `CC(=O)c1cc(C(=O)N2[C@@H]3CC[C@H]2CN(c2ncnc4[nH]ccc24)C3)cs1` [Example 112, 1-{4-[3-(7H-Pyrrolo[2,3-d]pyrimidin-4-yl)-3,8-diaza-bicyclo[3.2.1]octane-8-carbonyl]-thiophen-2-yl}-ethanone], the EC50 is more than 500 nM in test [1], 100 to 500 nM in test [2], less than 100 nM in test [3] and less than 100 nM in test [4].

For `N#Cc1ccccc1CC(=O)N1CCN(c2ncnc3[nH]ccc23)CC12CC2` [Example 113, 2-{2-Oxo-2-[7-(7H-pyrrolo[2,3-d]pyrimidin-4-yl)-4,7-diaza-spiro[2.5]oct-4-yl]-ethyl}-benzonitrile], the concentration giving a half-maximal response (EC50) is more than 500 nM in test [1], 100 to 500 nM in test [2], less than 100 nM in test [3] and 100 to 500 nM in test [4].

For `N#CC1(C(=O)N2CCN(c3ncnc4[nH]ccc34)CC23CC3)CCCC1` [Example 114, 1-[7-(7H-Pyrrolo[2,3-d]pyrimidin-4-yl)-4,7-diaza-spiro[2.5]octane-4-carbonyl]-cyclopentanecarbonitrile], the half-maximal effective concentration (EC50) in test [1] is more than 500 nM; in test [2], 100 to 500 nM; in test [3], less than 100 nM; in test [4], 100 to 500 nM.

Take `N#Cc1ccc(CC(=O)N2CCN(c3ccnc4[nH]ccc34)CC23CC3)cc1` [Example 115, 4-{2-Oxo-2-[7-(1H-pyrrolo[2,3-b]pyridin-4-yl)-4,7-diaza-spiro[2.5]oct-4-yl]-ethyl}-benzonitrile]: the EC50 in test [1] is more than 500 nM; in test [2], less than 100 nM; in test [3], less than 100 nM; in test [4], less than 100 nM.

As to `N#CCCC(=O)N1CCN(c2ccnc3[nH]ccc23)CC12CC2` [Example 116, 4-Oxo-4-[7-(1H-pyrrolo[2,3-b]pyridin-4-yl)-4,7-diaza-spiro[2.5]oct-4-yl]-butyronitrile], the concentration giving a half-maximal response (EC50) was more than 500 nM in test [1], 100 to 500 nM in test [2], 100 to 500 nM in test [3] and 100 to 500 nM in test [4].

Take `N#CC1(C(=O)N2CCN(c3ccnc4[nH]ccc34)CC23CC3)CC1` [Example 117, 1-[7-(1H-Pyrrolo[2,3-b]pyridin-4-yl)-4,7-diaza-spiro[2.5]octane-4-carbonyl]-cyclopropanecarbonitrile]: the EC50 in test [1] is more than 500 nM; in test [2], 100 to 500 nM; in test [3] it was 100 to 500 nM; in test [4], 100 to 500 nM.

Take `Cc1c[nH]c2ncnc(N3CCN(C(=O)c4ccc(C#N)cc4)C4(CC4)C3)c12` [Example 118, 4-[7-(5-Methyl-7H-pyrrolo[2,3-d]pyrimidin-4-yl)-4,7-diaza-spiro[2.5]octane-4-carbonyl]-benzonitrile]: the EC50 in test [1], in test [2], in test [3] and in test [4] was more than 500 nM throughout.

The values above are taken from patent publication US9346809B2 (LEO PHARMA A/S, priority 2009, dated 2016).
